Laboratory results: patent US11391740B2, “Methods and materials for identifying and treating cancer” (Mayo Foundation for Medical Education and Research, priority 2019, dated 2022)

Legend:
ENZ-resistant PDXs = experiment: ENZ-resistant patient-derived xenograft (PDX) tumor growth in mice; type: in vivo; settings: castrated male mice; ENZ 10 mg/kg, CPI637 10 mg/kg, JQ1 50 mg/kg, oral gavage 5 days per week
C4-2ENZ-R cells = experiment: SRB cell proliferation assay in enzalutamide-resistant C4-2 cells; type: cell-based, human; settings: for sensitivity of C4-2ENZ-R cells compared with C4-2CON cells by half maximal inhibitory concentration (IC50): C4-2ENZ-R vs C4-2CON, 4 days, FIGS. 5A-5C
Description: FIGS. 5A-5D: Dual inhibition of BET and CBP/p300 overcomes ENZ-resistance in ARPCa. A: Heatmap showing the sensitivity of control (C4-2CON) and enzalutamide-resistant C4-2 cells (C4-2ENZ-R) to various inhibitor. B-C: C4-2CON and C4-2ENZ-R cells were treated with the indicated concentrations of BET inhibitor (JQ1) and CBP/p300 inhibitor (CPI637) for 4 days, the cell proliferation was measured by SRB assay, and the 96 well plates were imaged. Data are represented as means±s.d., n=4. Statistical significance was determined by two-way ANOVA. D: C4-2ENZ-R cells were treated with the indicated concentrations of ENZ, JQ1, CPI637, or a combination of JQ1 and CPI-637, and cell proliferation was measured by a SRB assay. Data are represented as means±s.d., n=6. Statistical significance was determined by two-way ANOVA.
FIGS. 7A-7E. Full-length AR, but not AR variants, drives ENZ-resistant cell proliferation. A: C4-2CON and C4-2ENZ-R cells were treated with the indicated concentrations of ENZ, and cell proliferation was measured by SRB assay. Data are represented as means±s.d., n=6. Statistical significance was determined by two-way ANOVA. B: Heatmap showing RNA-seq read intensity of the canonical AR signature genes in C4-2CON and C4-2ENZ-R cells. C: RT-qPCR showing the mRNA level of KLK3 in C4-2CON and C4-2ENZ-R cells. Data are represented as means±s.d., n=3. Statistical significance was determined by unpaired two-tailed Student's t tests. D: Western blot analysis showing the expression of full-length (FL) AR and AR variants (Vs) in C4-2CON and C4-2ENZ-R cells. ERK2 was used as a loading control. E: UCSC genome browser tracks showing RNA-seq signals of AR and AR variants in C4-2CON and C4-2ENZ-R cells.
LNCaP, VCaP, LAPC4 PCa, and 293T cell lines were purchased from ATCC. […]
293T cells were co-transfected with control shRNA or shRNA specific for human AR, CXXC5, TET2, ID1, ID3 and PFN2. […] Cells were fixed at different time points (day 0-5) and cell growth was measured using a sulforhodamine B (SRB) assay (He et al., Nature Commun., 7:13122 (2016)).

C4-2ENZ-R xenografts = experiment: C4-2ENZ-R xenograft tumor growth in SCID mice; type: in vivo; settings: ENZ 10 mg/kg per day, 28 days, FIGS. 1A, 1B
Description: FIGS. 1A-1G. Genome-wide profiling of AR chromatin binding in ENZ-resistant PCa cells. A: Effect of ENZ treatment on growth of C4-2CON and C4-2ENZ-R xenografts in mice. C4-2ENZ-R and C4-2CON cells suspended in 0.1 mL matrigel were injected into the right flank of 6-week old male SCID mice. After the volume of tumor nodules reached about 100 mm^3, mice were randomly assigned within control and ENZ-resistant groups and were treated with ENZ at 10 mg/kg or vehicle per day and tumor volume was measured every 4 days. B: After 28 days of treatment, tumors were isolated from mice in each group and photographed. Data are represented as means±s.d., n=8. Statistical significance was determined by two-way ANOVA. […] D: AR was knocked down by specific shRNAs in C4-2CON and C4-2ENZ-R cells, and cell proliferation was measured by SRB assay. […] Statistical significance was determined by two-way ANOVA. E: Venn diagram showing AR chromatin binding peaks in C4-2CON and C4-2ENZ-R cells detected by ChIP-seq. F: Heatmaps showing ChIP-seq read intensity of AR, H3K27ac, and FOXA1 in C4-2CON and C4-2ENZ-R cells. […]
FIGS. 6A-6G. […] Representative images (scale bar, 50 μm), and quantified data are show in (a) and (b), respectively. […] Tumor size was measured every 4 days (d). After 28 days of treatment, tumors isolated from mice were photographed (e), and tumor weight was measured (f). […]

CRPC PDX = experiment: CRPC patient-derived xenograft (PDX) tumor growth in mice; type: in vivo; settings: ENZ 10 mg/kg daily, 32 days
Description: FIG. 11A-D. Upregulation of CXXC5 and ID1 in AFI-resistant PCa patients. A: H&E staining and IHC for AR, CXXC5, and ID1 in hormone naïve, CRPC and ENZ-resistant PC patient specimens. Scale bar, 200 μm. B: H&E staining and IHC for AR, CXXC5, and ID1 in ABI-resistant ARPC patient specimens. Scale bar, 200 m (low magnification); 50 m (high magnification). C-D: Comparison of ENZ response in CRPC and ENZ-resistant PDXs. CRPC and ENZ-resistant PDXs were planted into the right flank of 6 week-old male SCID mice. After the tumor volume reached about 100 mm^3, mice were randomly assigned within each tumor group and treated with 10 mg/kg of […] daily. Tumor size was measured every 4 days (C). After 32 days of treatment, tumors were isolated and photographed (D). Data are represented as means±s.d., n=8. Statistical significance was determined by two-way ANOVA.
NOD-SCID male mice were generated in house and used for animal experiments. All mice were housed under standard conditions with a 12 hour light/dark cycle and access to food and water ad libitum and maintained under pathogen-free conditions. […] Mice were treated 5 days per week by oral gavage and tumor growth was measured in a blinded fashion using digital calipers. The tumor volume was calculated using the following equation: tumor volume=length×width×width×0.5.

| SMILES | response of ENZ-resistant PDXs to treatment (ENZ-resistant PDXs) | sensitivity of C4-2ENZ-R cells compared with C4-2CON cells by half maximal inhibitory concentration (IC50) (C4-2ENZ-R cells) | growth of C4-2ENZ-R xenografts under ENZ treatment in vivo (C4-2ENZ-R xenografts) | response of CRPC PDX to treatment (CRPC PDX) | growth of C4-2ENZ-R cells under ENZ treatment in vitro (C4-2ENZ-R cells; in vitro, FIG. 7A) |
| --- | --- | --- | --- | --- | --- |
| C[C@@H]1CC(=O)Nc2cccc(-c3ccc4c(c3)c(-c3cnn(C)c3)nn4C)c2N1 [CPI637] | responded | much more sensitive |  |  |  |
| Cc1sc2c(c1C)C(c1ccc(Cl)cc1)=N[C@@H](CC(=O)OC(C)(C)C)c1nnc(C)n1-2 [JQ1] | responded | much more sensitive |  |  |  |
| CNC(=O)c1ccc(N2C(=S)N(c3ccc(C#N)c(C(F)(F)F)c3)C(=O)C2(C)C)cc1F [ENZ, enzalutamide] |  |  | resistant to ENZ treatment | still responded | resistant to ENZ treatment |
